Laboratory results as given in patent US8106197B2, “Aminoheteroaryl compounds as protein kinase inhibitors” (Pfizer Inc., priority 2003, dated 2012).

biological target: T1, HGFR (Homo sapiens, UniProt P08581); experiment: HGFR continuous-coupled spectrophotometric assay; assay type: biochemical; conditions: not given
T1 construct: purchased Upstate 14-526
T1 sequence (P08581 974-1390 limits assumed): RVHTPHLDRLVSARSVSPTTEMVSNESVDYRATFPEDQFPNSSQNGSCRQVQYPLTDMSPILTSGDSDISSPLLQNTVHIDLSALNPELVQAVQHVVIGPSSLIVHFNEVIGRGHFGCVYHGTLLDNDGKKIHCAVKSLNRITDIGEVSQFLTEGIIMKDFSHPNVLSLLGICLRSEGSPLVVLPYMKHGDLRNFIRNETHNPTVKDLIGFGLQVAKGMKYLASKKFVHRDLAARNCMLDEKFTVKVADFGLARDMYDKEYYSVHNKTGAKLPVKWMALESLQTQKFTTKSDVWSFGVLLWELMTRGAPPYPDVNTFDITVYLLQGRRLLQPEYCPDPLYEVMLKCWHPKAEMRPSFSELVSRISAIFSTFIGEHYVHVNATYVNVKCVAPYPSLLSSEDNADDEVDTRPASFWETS

% inhibition	Structure (SMILES)
% inhibition = 22	Cc1cc(-c2onc(C)c2COc2cc(-c3ccc(C(=O)N4CCC(N5CCCC5)CC4)cc3)cnc2N)no1
% inhibition = 33	Nc1ncc(-c2ccc(C(=O)N3CCC(N4CCCC4)CC3)cc2)cc1OCc1ccc(-c2cnc(Br)nc2)cc1
% inhibition = 31	Nc1ncc(-c2ccc(C(=O)N3CCC(N4CCCC4)CC3)cc2)cc1OCc1ccc(Br)cc1F
% inhibition = 18	CC(C)NC(=O)c1ccc(-c2noc(COc3cc(-c4ccc(C(=O)N5CCC(N6CCCC6)CC5)cc4)cnc3N)n2)cc1
% inhibition = 16	Nc1ncc(-c2ccc(C(=O)N3CCC(N4CCCC4)CC3)cc2)cc1OCc1cn2cc(Cl)ccc2n1
% inhibition = 14	Cc1nc(COc2cc(-c3ccc(C(=O)N4CCC(N5CCCC5)CC4)cc3)cnc2N)n(C)n1
% inhibition = 10	COc1ccc(-c2nc(COc3cc(-c4ccc(C(=O)N5CCC(N6CCCC6)CC5)cc4)cnc3N)no2)cc1
% inhibition = 14	CC(Oc1nc(-c2ccc(C(=O)N3CCC[C@H]3CN3CCCC3)cc2)cnc1N)c1c(Cl)cccc1Cl (some centres unmarked)
% inhibition = 21	Nc1ncc(-c2ccc(C(=O)N3CCC(N4CCCC4)CC3)cc2)cc1OCc1cc(F)cc2c1OCOC2
% inhibition = 16	CCOC(=O)C1CCN(C(=O)c2ccc(COc3cc(-c4ccc(C(=O)N5CCC(N6CCCC6)CC5)cc4)cnc3N)cc2)CC1
% inhibition = 9	CC(=O)N(c1ccc(C)cc1)c1nc(COc2cc(-c3ccc(C(=O)N4CCC(N5CCCC5)CC4)cc3)cnc2N)cs1
% inhibition = 10	CCN1CCCC1CNC(=O)c1cccc(COc2cc(-c3ccc(C(=O)N4CCC(N5CCCC5)CC4)cc3)cnc2N)c1 (centres unmarked)
% inhibition = 24	Nc1ncc(-c2ccc(C(=O)N3CCC(N4CCCC4)CC3)cc2)cc1OCc1cc(F)ccc1F
% inhibition = 15	Nc1ncc(-c2ccc(C(=O)N3CCC(N4CCCC4)CC3)cc2)cc1OCc1nc(N)c2ccccc2n1
% inhibition = 19	Nc1ncc(-c2ccc(C(=O)N3CCC(N4CCCC4)CC3)cc2)cc1OCc1ccc(F)c(F)c1F
% inhibition = 23	CN(C)c1ccc(NC(=O)c2cccc(COc3cc(-c4ccc(C(=O)N5CCC(N6CCCC6)CC5)cc4)cnc3N)c2)cc1
% inhibition = 11	Nc1ncc(-c2ccc(C(=O)N3CCC(N4CCCC4)CC3)cc2)cc1OCc1cn2ccccc2n1
% inhibition = 11	CNC(=O)c1ccc(OC)c(-c2noc(OCc3cc(-c4ccc(C(=O)N5CCC(N6CCCC6)CC5)cc4)cnc3N)n2)c1
% inhibition = 8	Nc1ncc(-c2ccc(C(=O)N3CCC(N4CCCC4)CC3)cc2)cc1OCc1nccn1Cc1ccccc1
% inhibition = 11	Cc1noc(COc2cc(-c3ccc(C(=O)N4CCC(N5CCCC5)CC4)cc3)cnc2N)n1
% inhibition = 7	Cn1nc(CC2CC2)nc1COc1cc(-c2ccc(C(=O)N3CCC(N4CCCC4)CC3)cc2)cnc1N
% inhibition = 14	Cn1ccnc1COc1cc(-c2ccc(C(=O)N3CCC(N4CCCC4)CC3)cc2)cnc1N
% inhibition = 20	CN(C)CCNC(=O)c1cccc(COc2cc(-c3ccc(C(=O)N4CCC(N5CCCC5)CC4)cc3)cnc2N)c1
% inhibition = 16	Nc1ncc(-c2ccc(C(=O)N3CCC(N4CCCC4)CC3)cc2)cc1OCc1ccccn1
% inhibition = 47	CCN(CC)c1ccc(NC(=O)c2ccc(COc3cc(-c4ccc(C(=O)N5CCC(N6CCCC6)CC5)cc4)cnc3N)cc2)cc1
% inhibition = 10	Cc1noc(C)c1COc1cc(-c2ccc(C(=O)N3CCC(N4CCCC4)CC3)cc2)cnc1N
% inhibition = 36	CC(C)(C)c1ccc(-c2noc(COc3cc(-c4ccc(C(=O)N5CCC(N6CCCC6)CC5)cc4)cnc3N)n2)cc1
% inhibition = 24	Nc1ncc(-c2ccc(C(=O)N3CCC(N4CCCC4)CC3)cc2)cc1OCc1cccc(F)c1F

same assay, conditions: Table 3; Ki(μM) or I(%); test concentration not given

I(%)	Structure (SMILES)
15%	COc1cc(C(=O)N2C[C@@H](C)N[C@@H](C)C2)cc(OC)c1-c1cnc(N)c(OC(C)c2c(Cl)ccc(F)c2Cl)c1 (some centres unmarked) [Example I-550, (4-{6-Amino-5-[1-(2,6-dichloro-3-fluoro-phenyl)-ethoxy]-pyridin-3-yl)-3,5-dimethoxy-phenyl)-(dimethyl-piperazin-1-yl)-methanone]
4%	CC(Oc1cc(-c2ccccc2C(F)(F)F)cnc1N)c1c(Cl)ccc(F)c1Cl (centres unmarked) [Example I-559, 3-[1-(2,6-Dichloro-3-fluoro-phenyl)-ethoxy]-5-(2-trifluoromethyl-phenyl)-pyridin-2-ylamine]
0%	Cc1cccc(C)c1-c1cnc(N)c(OC(C)c2c(Cl)ccc(F)c2Cl)c1 (centres unmarked) [Example I-567, 3-[1-(2,6-Dichloro-fluoro-pheny)-ethoxy]-5-(2,6-dimethylphenyl)-pyridin-2-ylamine]
24%	CC(Oc1cc(-c2ccccc2Cl)cnc1N)c1c(Cl)ccc(F)c1Cl (centres unmarked) [Example I-560, 5-(2-Chloro-phenyl)-3-[1-(2,6-dichloro-3-fluoro-phenyl)-ethoxy]-pyridin-2-ylamine]
0%	C[C@@H]1CN(C(=O)c2ccc(-c3cnc4c(c3)OC(c3ccccc3)C(=O)N4)cc2)C[C@H](C)N1 (some centres unmarked) [Example I-618, 7-(4-(3,5-Dimethyl-piperazine-1-carbonyl)-phenyl]-2-phenyl-4H-pyrido[3,2-b](1,4]oxazin-3-one]

same assay, conditions: Table 5; percent c-MET inhibition at 50 nM

inhibition at 0.05 µM	Structure (SMILES)
81%	COC(=O)C(CO)NC(=O)c1ccc(-c2cnc(N)c(OC(C)c3c(Cl)ccc(F)c3Cl)c2)cc1 (centres unmarked)
73%	CCC(CO)NC(=O)c1ccc(-c2cnc(N)c(OC(C)c3c(Cl)ccc(F)c3Cl)c2)cc1 (centres unmarked)
53%	CC(Oc1cc(-c2ccc(C(=O)N3CCCCC3COc3ccccc3)cc2)cnc1N)c1c(Cl)ccc(F)c1Cl (centres unmarked)
60%	CC(Oc1cc(-c2ccc(C(=O)N[C@H](C)C3CCCCC3)cc2)cnc1N)c1c(Cl)ccc(F)c1Cl (some centres unmarked) [drawing 1068]
58%	CC(Cc1ccc(Cl)cc1)NC(=O)c1ccc(-c2cnc(N)c(OC(C)c3c(Cl)ccc(F)c3Cl)c2)cc1 (centres unmarked)
74%	CC(Oc1cc(-c2ccc(C(=O)N[C@H](CO)C(C)C)cc2)cnc1N)c1c(Cl)ccc(F)c1Cl (some centres unmarked)
51%	Cc1noc([C@H]2CC[C@H](CNC(=O)c3ccc(-c4cnc(N)c(OC(C)c5c(Cl)ccc(F)c5Cl)c4)cc3)CC2)n1 (some centres unmarked)
59%	CC(Oc1cc(-c2ccc(C(=O)N3CCC(Cc4ccccc4)C3)cc2)cnc1N)c1c(Cl)ccc(F)c1Cl (centres unmarked)
56%	CCC1CCCCN1C(=O)c1ccc(-c2cnc(N)c(OC(C)c3c(Cl)ccc(F)c3Cl)c2)cc1 (centres unmarked)

same assay, conditions: Table 5; percent c-MET inhibition at 50 nM; 0.05 µM

% inhibition	Structure (SMILES)
% inhibition = 54	CC(Oc1cc(-c2ccc(C(=O)N[C@H](C)C3CCCCC3)cc2)cnc1N)c1c(Cl)ccc(F)c1Cl (some centres unmarked) [drawing 1071]

same assay, conditions: Table 6; percent c-MET inhibition at 1 μM; read-out: % inhibition

inhibition at 1 µM	Structure (SMILES)
10%	Nc1ncc(C(=O)N2CCS(=O)(=O)CC2)cc1OCc1c(Cl)cccc1Cl
36%	CC(NC(=O)c1cnc(N)c(OCc2c(Cl)cccc2Cl)c1)c1ccc(O)cc1 (centres unmarked)
26%	Nc1ncc(C(=O)N2CCC(N3CCCCC3=O)CC2)cc1OCc1c(Cl)cccc1Cl
34%	Nc1ncc(C(=O)N2CCC3(CC2)COC(CCc2cc(O)n[nH]2)C3)cc1OCc1c(Cl)cccc1Cl (centres unmarked)
30%	Cc1nc[nH]c1CN1CCC2(CC1)CC(NC(=O)c1cnc(N)c(OCc3c(Cl)cccc3Cl)c1)CO2 (centres unmarked)
18%	CN(CCc1ccccn1)CC1(O)CCN(C(=O)c2cnc(N)c(OCc3c(Cl)cccc3Cl)c2)C1 (centres unmarked)
29%	Nc1ncc(C(=O)NCCc2c[nH]c3ccc(O)cc23)cc1OCc1c(Cl)cccc1Cl
31%	Nc1ncc(C(=O)NCCC2CCOCC2)cc1OCc1c(Cl)cccc1Cl
29%	NC(=O)C1CCN(C(=O)c2cnc(N)c(OCc3c(Cl)cccc3Cl)c2)CC1
27%	COCCN1CCN(C(=O)c2cnc(N)c(OCc3c(Cl)cccc3Cl)c2)CC1
30%	CN(CC#N)C(=O)c1cnc(N)c(OCc2c(Cl)cccc2Cl)c1
25%	COc1cc(CCNC(=O)c2cnc(N)c(OCc3c(Cl)cccc3Cl)c2)cc(OC)c1O
39%	CN(CC(N)=O)C(=O)c1cnc(N)c(OCc2c(Cl)cccc2Cl)c1
27%	Nc1ncc(C(=O)N2CCc3nnc(CCN4CCOCC4)n3CC2)cc1OCc1c(Cl)cccc1Cl
32%	CN1CCN(C(=O)c2cnc(N)c(OCc3c(Cl)cccc3Cl)c2)CC1
41%	CCc1ccc(COCC2CCN(C(=O)c3cnc(N)c(OCc4c(Cl)cccc4Cl)c3)CC2)nc1

inhibition at 1 µM	Structure (SMILES)
24%	CN1CCN(CCCNC(=O)c2cnc(N)c(OCc3c(Cl)cccc3Cl)c2)CC1
21%	Nc1ncc(C(=O)NC2COC3(CCN(c4ncccn4)CC3)C2)cc1OCc1c(Cl)cccc1Cl (centres unmarked)
27%	Nc1ncc(C(=O)NC(CO)Cc2ccc(Cl)cc2)cc1OCc1c(Cl)cccc1Cl (centres unmarked)
35%	CC(=O)NCCNC(=O)c1cnc(N)c(OCc2c(Cl)cccc2Cl)c1
36%	Nc1ncc(C(=O)N2CCCC(O)(COc3cccc(F)c3)C2)cc1OCc1c(Cl)cccc1Cl (centres unmarked)
45%	Cc1ccn2cc(CNC(=O)c3cnc(N)c(OCc4c(Cl)cccc4Cl)c3)nc2n1
10%	CN(C)C(=O)c1cnc(N)c(OCc2c(Cl)cccc2Cl)c1
59%	COc1ccc(CNC(=O)c2cnc(N)c(OCc3c(Cl)cccc3Cl)c2)c(OC)c1
33%	Nc1ncc(C(=O)NCc2ccc(F)cc2F)cc1OCc1c(Cl)cccc1Cl
22%	COc1ccc(C(CCO)NC(=O)c2cnc(N)c(OCc3c(Cl)cccc3Cl)c2)cc1 (centres unmarked)
25%	CN(CCC1CCC(=O)N1CC(F)(F)F)C(=O)c1cnc(N)c(OCc2c(Cl)cccc2Cl)c1 (centres unmarked)
31%	Nc1ncc(C(=O)NCCN2CCOCC2)cc1OCc1c(Cl)cccc1Cl
2%	C[C@@H]1CCC[C@H](C)N1CCNC(=O)c1cnc(N)c(OCc2c(Cl)cccc2Cl)c1
35%	Nc1ncc(C(=O)N2CCC(COc3cccc4cccnc34)C2)cc1OCc1c(Cl)cccc1Cl (centres unmarked)
36%	Nc1ncc(C(=O)NCCN2CCN(Cc3ccccc3)CC2)cc1OCc1c(Cl)cccc1Cl
